Measured values published in US8445689B2, “Pesticides” (Dow AgroSciences, LLC., priority 2008, dated 2013).

Test system: Green Peach Aphid (Myzus persicae)
Experiment: Insecticidal test for green peach aphid in foliar spray assay on cabbage
Assay type: in vivo
Details: 72 h, 200 ppm foliar spray on cabbage seedlings, graded after 3 d, corrected % control (Abbott), read-out: Rating against green peach aphid on cabbage (foliar spray)
Procedure: Compounds 1-67 were tested against green peach aphid using procedures described hereinafter.
Insecticidal Test for Green Peach Aphid (Myzus persicae) in Foliar Spray Assay
Cabbage seedlings grown in 3-inch pots, with 2-3 small (3-5 cm) true leaves, were used as test substrate. The seedlings were infested with 20-50 green peach aphids (wingless adult and nymph) 1-2 d prior to chemical application. Four seedlings were used for each treatment. Compounds (2 mg) were dissolved in 2 mL of acetone-methanol (1:1) solvent, forming stock solutions of 1000 ppm. The stock solutions were diluted 5× with 0.025% Tween 20 in H2O to obtain a solution at 200 ppm. A hand-held Devilbiss aspirator sprayer was used for spraying a solution to both sides of cabbage leaves until runoff. Reference plants (solvent check) were sprayed with the diluent only. Treated plants were held in a holding room for 3 d at approximately 23° C. and 40% RH prior to grading. Evaluation was conducted by counting the number of live aphids per plant under a microscope. Insecticidal activity was measured by using Abbott's correction formula: Corrected % Control=100*(X−Y)/X • where X=No. of live aphids on solvent check plants • Y=No. of live aphids on treated plants

Compared with `CC(c1ccc(C(F)(F)F)nc1)S(C)(=O)=NC(=O)NC(=O)CCl` (centres unmarked) [Compound 3, N-(chloroacetyl)-N′-(methyl(oxido){1-[6-(trifluoromethyl)pyridin-3-yl]ethyl}-λ^4-sulfanylidene)urea], `CC(c1ccc(C(F)(F)F)nc1)S(C)(=O)=NC(=N)N` (centres unmarked) [Compound 45, N-(methyl(oxido){1-[6-(trifluoromethyl)pyridin-3-yl]ethyl}-λ^4-sulfanylidene)guanidine] is lower in pest or weed control at 200 ppm: 80 to 100% for the first, under 80% for the second.

`CC(c1ccc(C(F)(F)F)nc1)S(C)(=O)=NC(=S)Nc1cccnc1` (centres unmarked) [Compound 4, N-(methyl(oxido){1-[6-(trifluoromethyl)pyridin-3-yl]ethyl}-λ^4-sulfanylidene)-N′-pyridin-3-ylthiourea] and `COc1ccc(NC(=S)N=S(C)(=O)C(C)c2ccc(C(F)(F)F)nc2)cc1` (centres unmarked) [Compound 5] cannot be ordered by pest or weed control at 200 ppm: under 80% for the first, under 80% for the second.

`CCNC(=S)N=S(C)(=O)C(C)c1ccc(C(F)(F)F)nc1` (centres unmarked) [Compound 6] and `CNC(=S)N=S(C)(=O)C(C)c1ccc(C(F)(F)F)nc1` (centres unmarked) [Compound 13] fall in the same range of pest or weed control at 200 ppm: 80 to 100% for the first, 80 to 100% for the second.

`CC(c1ccc(C(F)(F)F)nc1)S(C)(=O)=NC(=S)NC1CCCCC1` (centres unmarked) [Compound 7] and `CC(c1ccc(C(F)(F)F)nc1)S(C)(=O)=NC(=S)NC1CC1` (centres unmarked) [Compound 15] fall in the same range of pest or weed control at 200 ppm: 80 to 100% for the first, 80 to 100% for the second.

`CC(c1ccc(C(F)(F)F)nc1)S(C)(=O)=NC(=S)NCc1ccco1` (centres unmarked) [Compound 8] and `CC(c1ccc(C(F)(F)F)nc1)S(C)(=O)=NC(=S)NC(=O)c1ccco1` (centres unmarked) [Compound 18] fall in the same range of pest or weed control at 200 ppm: 80 to 100% for the first, 80 to 100% for the second.

`COC(=O)C(C)NC(=S)N=S(C)(=O)C(C)c1ccc(C(F)(F)F)nc1` (centres unmarked) [Compound 10] and `CC(C)NC(=S)N=S(C)(=O)C(C)c1ccc(C(F)(F)F)nc1` (centres unmarked) [Compound 14] fall in the same range of pest or weed control at 200 ppm: 80 to 100% for the first, 80 to 100% for the second.

`CC(c1ccc(C(F)(F)F)nc1)S(C)(=O)=NC(=S)NCCN1CCOCC1` (centres unmarked) [Compound 11] and `CC(c1ccc(C(F)(F)F)nc1)S(C)(=O)=NC(=S)N1CCOCC1` (centres unmarked) [Compound 27] fall in the same range of pest or weed control at 200 ppm: 80 to 100% for the first, 80 to 100% for the second.

`CCOC(=O)CNC(=S)N=S(C)(=O)C(C)c1ccc(C(F)(F)F)nc1` (centres unmarked) [Compound 12] and `CCO/N=C(\N)N=S(C)(=O)C(C)c1ccc(C(F)(F)F)nc1` (centres unmarked) [Compound 49] fall in the same range of pest or weed control at 200 ppm: 80 to 100% for the first, 80 to 100% for the second.

`CC(c1ccc(C(F)(F)F)nc1)S(C)(=O)=NC(=S)NC(=O)c1ccc(Cl)cc1` (centres unmarked) [Compound 16] and `COc1ccc(C(=O)NC(=S)N=S(C)(=O)C(C)c2ccc(C(F)(F)F)nc2)cc1` (centres unmarked) [Compound 17] fall in the same range of pest or weed control at 200 ppm: 80 to 100% for the first, 80 to 100% for the second.

`CC(c1ccc(C(F)(F)F)nc1)S(C)(=O)=NC(=S)N(C)C` (centres unmarked) [Compound 23, N,N-dimethyl-N′-(methyl(oxido){1-[6-(trifluoromethyl)pyridin-3-yl]ethyl}-λ^4-sulfanylidene)thiourea] and `CCN(CC)C(=S)N=S(C)(=O)C(C)c1ccc(C(F)(F)F)nc1` (centres unmarked) [Compound 24] fall in the same range of pest or weed control at 200 ppm: 80 to 100% for the first, 80 to 100% for the second.

`CC(c1ccc(C(F)(F)F)nc1)S(C)(=O)=NC(=S)N1CCCC1` (centres unmarked) [Compound 25] and `CC(c1ccc(C(F)(F)F)nc1)S(C)(=O)=NC(=S)N1CCCCC1` (centres unmarked) [Compound 26] fall in the same range of pest or weed control at 200 ppm: 80 to 100% for the first, 80 to 100% for the second.

`CS(=O)(Cc1ccc(C(F)(F)F)nc1)=NC(N)=S` (centres unmarked) [Compound 29, N-(methyl(oxido){[6-(trifluoromethyl)pyridin-3-yl]methyl}-λ^4-sulfanylidene)thiourea] and `CS(=O)(Cc1ccc(C(F)(F)F)nc1)=N/C(N)=N/O` (centres unmarked) [Compound 42, N′-hydroxy-N-(methyl(oxido){[6-(trifluoromethyl)pyridin-3-yl]methyl}-λ^4-sulfanylidene)guanidine] fall in the same range of pest or weed control at 200 ppm: 80 to 100% for the first, 80 to 100% for the second.

First: CS(=O)(=N/C(N)=N/O)C(CC1CC1)c1ccc(Cl)nc1 (centres unmarked) [Compound 40, N-[[1-(6-chloropyridin-3-yl)-2-cyclopropylethyl](methyl)oxido-λ^4-sulfanylidene]-N″-hydroxyguanidine]
Second: CS(=O)(=N/C(N)=N/O)C(CC1CC1)c1ccc(C(F)(F)F)nc1 (centres unmarked) [Compound 43, N-[{2-cyclopropyl-1-[6-(trifluoromethyl)pyridin-3-yl]ethyl}(methyl)oxido-λ^4-sulfanylidene]-N″-hydroxyguanidine]
The pest or weed control at 200 ppm of the first is lower: under 80% for the first, 80 to 100% for the second.

`CS(=O)(=N/C(N)=N/O)C(C/C=C/Cl)c1ccc(Cl)nc1` (centres unmarked) [Compound 41, N-[[(3E)-4-Chloro-1-(6-chloropyridin-3-yl)but-3-enyl](methyl)oxido-λ^4-sulfanylidene]-N″-hydroxyguanidine] and `CC(C)O/N=C(\N)N=S(C)(=O)C(C/C=C/Cl)c1ccc(Cl)nc1` (centres unmarked) [Compound 64, N-[[(3E)-4-Chloro-1-(6-chloropyridin-3-yl)but-3-enyl](methyl)oxido-λ^4-sulfanylidene]-N″-isopropoxyguanidine] cannot be ordered by pest or weed control at 200 ppm: under 80% for the first, under 80% for the second.

`CC(=O)O/N=C(\N)N=S(C)(=O)C(C)c1ccc(C(F)(F)F)nc1` (centres unmarked) [Compound 44, N″-(acetyloxy)-N-(methyl(oxido){1-[6-(trifluoromethyl)pyridin-3-yl]ethyl}-λ^4-sulfanylidene)guanidine] and `CO/N=C(\N)N=S(C)(=O)C(C)c1ccc(C(F)(F)F)nc1` (centres unmarked) [Compound 48] fall in the same range of pest or weed control at 200 ppm: 80 to 100% for the first, 80 to 100% for the second.

`CC(c1ccc(C(F)(F)F)nc1)S(C)(=O)=N/C(N)=N/OCc1ccc(Cl)cc1` (centres unmarked) [Compound 46, N′-[(4-chlorobenzyl)oxy]-N-(methyl(oxido) {1-[6-(trifluoromethyl)pyridin-3-yl]ethyl}-λ^4-sulfanylidene)guanidine] and `COc1ccc(CO/N=C(\N)N=S(C)(=O)C(C)c2ccc(C(F)(F)F)nc2)cc1` (centres unmarked) [Compound 47] fall in the same range of pest or weed control at 200 ppm: 80 to 100% for the first, 80 to 100% for the second.

`CC(C)O/N=C(\N)N=S(C)(=O)C(C)c1ccc(C(F)(F)F)nc1` (centres unmarked) [Compound 50] and `C=CCO/N=C(\N)N=S(C)(=O)C(C)c1ccc(C(F)(F)F)nc1` (centres unmarked) [Compound 53] fall in the same range of pest or weed control at 200 ppm: 80 to 100% for the first, 80 to 100% for the second.

`CC(c1ccc(C(F)(F)F)nc1)S(C)(=O)=N/C(N)=N/OCC1CC1` (centres unmarked) [Compound 51] and `CC(c1ccc(C(F)(F)F)nc1)S(C)(=O)=N/C(N)=N/OCC1CO1` (centres unmarked) [Compound 61] fall in the same range of pest or weed control at 200 ppm: 80 to 100% for the first, 80 to 100% for the second.

`CC(c1ccc(C(F)(F)F)nc1)S(C)(=O)=N/C(N)=N/OCC1CC1(F)F` (centres unmarked) [Compound 52] and `CC(c1ccc(C(F)(F)F)nc1)S(C)(=O)=N/C(N)=N/OCCF` (centres unmarked) [Compound 59] fall in the same range of pest or weed control at 200 ppm: 80 to 100% for the first, 80 to 100% for the second.

`CC(c1ccc(C(F)(F)F)nc1)S(C)(=O)=N/C(N)=N/OCCCF` (centres unmarked) [Compound 54] and `CC(c1ccc(C(F)(F)F)nc1)S(C)(=O)=N/C(N)=N/OCCCCF` (centres unmarked) [Compound 55] fall in the same range of pest or weed control at 200 ppm: 80 to 100% for the first, 80 to 100% for the second.

`CC(c1ccc(C(F)(F)F)nc1)S(C)(=O)=N/C(N)=N/OCCC=C(F)F` (centres unmarked) [Compound 56] and `COCCO/N=C(\N)N=S(C)(=O)C(C)c1ccc(C(F)(F)F)nc1` (centres unmarked) [Compound 60] fall in the same range of pest or weed control at 200 ppm: 80 to 100% for the first, 80 to 100% for the second.

First: CC(c1ccc(C(F)(F)F)nc1)S(C)(=O)=N/C(=N/OCc1ccc(Cl)cc1)NCc1ccc(Cl)cc1 (centres unmarked) [Compound 57]
Second: COc1ccc(CN/C(N=S(C)(=O)C(C)c2ccc(C(F)(F)F)nc2)=N\OCc2ccc(OC)cc2)cc1 (centres unmarked) [Compound 58]
The pest or weed control at 200 ppm of the first is lower: under 80% for the first, 80 to 100% for the second.

Compared with `CN/C(N=S(C)(=O)C(C)c1ccc(C(F)(F)F)nc1)=N\OC` (centres unmarked) [Compound 63, N″-methoxy-N-methyl-N′-(methyl(oxido){1-[6-(trifluoromethyl)pyridin-3-yl]ethyl}-λ^4-sulfanylidene)guanidine], `CC(c1ccc(C(F)(F)F)nc1)S(C)(=O)=NC(=O)C(C)(C)C` (centres unmarked) [Compound 67, 2,2-dimethyl-N-(methyl(oxido){1-[6-(trifluoromethyl)pyridin-3-yl]ethyl}-λ^4-sulfanylidene)propanamide] is lower in pest or weed control at 200 ppm: 80 to 100% for the first, under 80% for the second.

In the case of `CC(c1ccc(C(F)(F)F)nc1)S(C)(=O)=NC(=O)C(F)F` (centres unmarked) [Compound 66, 2,2-difluoro-N-(methyl(oxido){1-[6-(trifluoromethyl)pyridin-3-yl]ethyl}-λ^4-sulfanylidene)acetamide], the pest or weed control at 200 ppm is reported as 80 to 100%.

Same assay, conditions: foliar, 72 h, read-out: Rating against green peach aphid on cabbage (foliar spray)

First: CC(c1ccc(C(F)(F)F)nc1)S(C)(=O)=NC(=S)NC(=O)OCC1c2ccccc2-c2ccccc21 (centres unmarked) [Compound 9]
Second: Cc1ccc(C(C)S(C)(=O)=NC(=S)NC(=O)OCC2c3ccccc3-c3ccccc32)cn1 (centres unmarked) [Compound 32, 9H-fluoren-9-ylmethyl({methyl[1-(6-methylpyridin-3-yl)ethyl]oxido-λ^4-sulfanylidene}amino)carbonothioylcarbamate]
The pest or weed control at 200 ppm of the first is higher: 80 to 100% for the first, under 80% for the second.

For `CCOC(=O)NC(=S)N=S(C)(=O)C(C)c1ccc(C(F)(F)F)nc1` (centres unmarked) [Compound 19], the pest or weed control at 200 ppm was 80 to 100%.

Test system: not given
Experiment: not given
Details: not given

First: CS(=O)(=NC(=O)Nc1ccc(C(F)(F)F)cc1)c1ccc(Cl)cc1 (centres unmarked) [Compound 1, N-[(4-chlorophenyl)(methyl)oxido-λ^4-sulfanylidene]-N′-[4-(trifluoromethyl)phenyl]urea]
Second: COc1ccc(NC(=S)N=S(C)(=O)C(C)c2ccc(C(F)(F)F)nc2)cc1 (centres unmarked) [Compound 5]
The melting point of the first is lower: 131 to 134 °C for the first, 167 to 169 °C for the second.

Compared with `CC(c1ccc(C(F)(F)F)nc1)S(C)(=O)=NC(=S)NC1CCCCC1` (centres unmarked) [Compound 7], `CC(c1ccc(C(F)(F)F)nc1)S(C)(=O)=NC(=S)NC1CC1` (centres unmarked) [Compound 15] is lower in melting point: 170 to 172 °C for the first, 154 to 156 °C for the second.

First: CC(c1ccc(C(F)(F)F)nc1)S(C)(=O)=NC(=S)NC(=O)OCC1c2ccccc2-c2ccccc21 (centres unmarked) [Compound 9]
Second: CC(C)NC(=S)N=S(C)(=O)C(C)c1ccc(C(F)(F)F)nc1 (centres unmarked) [Compound 14]
The melting point of the first is lower: 105 to 107 °C for the first, 153 to 155 °C for the second.
